Measured values as given in ChEMBL document CHEMBL3526102, “Biotransformation of two β-secretase inhibitors including ring opening and contraction of a pyrimidine ring” (Drug Metab Dispos, 2013).

Experiments:
Liver = experiment: Drug level in Sprague-Dawley rat aroclor 1254-induced liver S9 fraction treated with AZD3839 at 100 uM by LC-MS analysis; type: ADME, subcellular; settings: s9, 100 µM
Liver microsome [1] = experiment: Drug level in human liver microsomes treated with AZD3839 at 1 uM after 30 mins by LC-MS analysis; type: ADME; settings: 0.5 h
Hepatocyte [2] = experiment: Drug level in human hepatocytes treated with [14C]-AZD3839 at 5 uM after 120 mins by LC-MS analysis; type: ADME, cell-based; settings: 2 h
Hepatocyte [3] = experiment: Drug level in Sprague-Dawley rat hepatocytes treated with [14C]-AZD3839 at 5 uM after 120 mins by LC-MS analysis; type: ADME, cell-based; settings: 2 h
Hepatocyte [4] = experiment: Drug level in New Zealand White rabbit hepatocytes treated with [14C]-AZD3839 at 5 uM after 120 mins by LC-MS analysis; type: ADME, cell-based, Oryctolagus cuniculus; settings: 2 h
Liver microsome [5] = experiment: Drug level in Sprague-Dawley rat liver microsomes treated with AZD3839 at 1 uM after 30 mins by LC-MS analysis; type: ADME; settings: 0.5 h
Liver microsome [6] = experiment: Drug metabolism in Sprague-Dawley rat liver microsomes assessed as (S)-4-(3-amino-4-fluoro-1-(3-(pyrimidin-5-yl)phenyl)-1H-isoindol-1-yl)-2-(difluoromethyl)pyridine 1-oxide formation at 1 uM after 30 mins by LC-MS analysis; type: ADME; settings: 0.5 h
[7] = Drug metabolism in Sprague-Dawley rat aroclor 1254-induced liver S9 fraction assessed as (S)-5-(3-(3-amino-1-(2-(difluoromethyl)pyridin-4-yl)-4-fluoro-1H-isoindol-1-yl)phenyl)pyrimidine 1-oxide formation at 100 uM by LC-MS analysis; type: ADME, subcellular; settings: s9, 100 µM
Liver microsome [8] = experiment: Drug metabolism in Sprague-Dawley rat liver microsomes assessed as (S)-5-(3-(3-amino-1-(2-(difluoromethyl)pyridin-4-yl)-4-fluoro-1H-isoindol-1-yl)phenyl)pyrimidine 1-oxide formation at 1 uM after 30 mins by LC-MS analysis; type: ADME; settings: 0.5 h
Liver microsome [9] = experiment: Drug metabolism in human liver microsomes assessed as (S)-4-(3-amino-4-fluoro-1-(3-(pyrimidin-5-yl)phenyl)-1H-isoindol-1-yl)-2-(difluoromethyl)pyridine 1-oxide formation at 1 uM after 30 mins by LC-MS analysis; type: ADME; settings: 0.5 h
Liver microsome [10] = experiment: Drug metabolism in human liver microsomes assessed as (S)-5-(3-(3-amino-1-(2-(difluoromethyl)pyridin-4-yl)-4-fluoro-1H-isoindol-1-yl)phenyl)pyrimidine 1-oxide formation at 1 uM after 30 mins by LC-MS analysis; type: ADME; settings: 0.5 h
[11] = Drug metabolism in Sprague-Dawley rat aroclor 1254-induced liver S9 fraction assessed as (S)-4-(3-amino-4-fluoro-1-(3-(pyrimidin-5-yl)phenyl)-1H-isoindol-1-yl)-2-(difluoromethyl)pyridine 1-oxide formation at 100 uM by LC-MS analysis; type: ADME, subcellular; settings: s9, 100 µM
[12] = Drug metabolism in Sprague-Dawley rat aroclor 1254-induced liver S9 fraction assessed as 5-(3-(3-amino-1-(2-(difluoromethyl)pyridin-4-yl)-4-fluoro-1H-isoindol-1-yl)phenyl)pyrimidin-4(3H)-one formation at 100 uM by LC-MS analysis; type: ADME, subcellular; settings: s9, 100 µM
Plasma = experiment: Drug level in bile duct-cannulated Sprague-Dawley rat plasma treated with (S)-1-pyridin-4-yl-4-fluoro-1-(3-(pyrimidin-5-yl)phenyl)-1H-isoindol-3-amine at 30 umol/kg, iv after 6 hrs by LC-MS analysis; type: ADME, organism-based; settings: in vivo
[13] = Drug level in Sprague-Dawley rat bile treated with [14C]-AZD3839 at 58 umol/kg, po after 48 hrs by LC-MS analysis; type: ADME, organism-based; settings: in vivo
Liver microsome [14] = experiment: Drug level in Sprague-Dawley rat liver microsomes treated with (S)-1-pyridin-4-yl-4-fluoro-1-(3-(pyrimidin-5-yl)phenyl)-1H-isoindol-3-amine at 1 uM after 30 mins by LC-MS analysis; type: ADME; settings: 0.5 h
Cytochrome P450 3A4 = Cytochrome P450 3A4 (Homo sapiens, UniProt P08684); experiment: Activity of human recombinant CYP3A4 expressed in insect BTI-TN-5B1-4 cell microsomes assessed as enzyme-mediated drug metabolism treated with (S)-1-pyridin-4-yl-4-fluoro-1-(3-(pyrimidin-5-yl)phenyl)-1H-isoindol-3-amine at 2 uM after 30 mins; type: ADME; settings: bti-tn-5b1-4, 0.5 h
Liver microsome [15] = experiment: Drug level in human liver microsomes treated with (S)-1-pyridin-4-yl-4-fluoro-1-(3-(pyrimidin-5-yl)phenyl)-1H-isoindol-3-amine at 1 uM after 30 mins by LC-MS analysis; type: ADME; settings: 0.5 h
[16] = Drug metabolism in human hepatocytes assessed as (S)-4-(3-amino-4-fluoro-1-(3-(pyrimidin-5-yl)phenyl)-1H-isoindol-1-yl)-2-(difluoromethyl)pyridine 1-oxide formation at 5 uM after 120 mins by LC-MS analysis; type: ADME, cell-based, Hepatocyte; settings: 2 h
[17] = Drug metabolism in human hepatocytes assessed as (S)-5-(3-(3-amino-1-(2-(difluoromethyl)pyridin-4-yl)-4-fluoro-1H-isoindol-1-yl)phenyl)pyrimidine 1-oxide formation at 5 uM after 120 mins by LC-MS analysis; type: ADME, cell-based, Hepatocyte; settings: 2 h
[18] = Drug metabolism in Sprague-Dawley rat hepatocytes assessed as 5-(3-(3-amino-1-(2-(difluoromethyl)pyridin-4-yl)-4-fluoro-1H-isoindol-1-yl)phenyl)pyrimidin-4-ol formation at 5 uM after 120 mins by LC-MS analysis; type: ADME, cell-based, Hepatocyte; settings: 2 h
[19] = Drug metabolism in human hepatocytes assessed as 5-(3-(3-amino-1-(2-(difluoromethyl)pyridin-4-yl)-4-fluoro-1H-isoindol-1-yl)phenyl)pyrimidin-4-ol formation at 5 uM after 120 mins by LC-MS analysis; type: ADME, cell-based, Hepatocyte; settings: 2 h
[20] = Drug metabolism in New Zealand White rabbit hepatocytes assessed as 1-(3-(3-amino-1-(2-(difluoromethyl)pyridin-4-yl)-4-fluoro-1H-isoindol-1-yl)phenyl)ethane-1,2-diol formation at 5 uM after 120 mins by LC-MS analysis; type: ADME, cell-based, Oryctolagus cuniculus, Hepatocyte; settings: 2 h
[21] = Drug metabolism in Sprague-Dawley rat bile assessed as (2S,3S,4S,5R,6S)-6-(5-(3-(3-amino-1-(2-(difluoromethyl)pyridin-4-yl)-4-fluoro-1H-isoindol-1-yl)phenyl)-1H-imidazol-1-yloxy)-3,4,5-trihydroxytetrahydro-2H-pyran-2-carboxylic acid formation at 58 umol/kg, po after 48 hrs by LC-MS analysis; type: ADME, organism-based; settings: in vivo
[22] = Drug excretion in Han Wistar rat feces at 5.8 umol/kg, iv by LC-MS analysis; type: ADME, organism-based; settings: faeces, read-out: Drug excretion
[23] = Drug excretion in Han Wistar rat urine at 5.8 umol/kg, iv by LC-MS analysis; type: ADME, organism-based; settings: read-out: Drug excretion
[24] = Drug metabolism in New Zealand White rabbit hepatocytes assessed as (S)-5-(3-(3-amino-1-(2-(difluoromethyl)pyridin-4-yl)-4-fluoro-1H-isoindol-1-yl)phenyl)pyrimidine 1-oxide formation at 5 uM after 120 mins by LC-MS analysis; type: ADME, cell-based, Oryctolagus cuniculus, Hepatocyte; settings: 2 h
[25] = Drug metabolism in human hepatocytes assessed as 5-(3-(3-amino-1-(2-(difluoromethyl)pyridin-4-yl)-4-fluoro-1H-isoindol-1-yl)phenyl)pyrimidin-4(3H)-one formation at 5 uM after 120 mins by LC-MS analysis; type: ADME, cell-based, Hepatocyte; settings: 2 h
[26] = Drug metabolism in human hepatocytes assessed as 5-(3-(3-amino-1-(2-(difluoromethyl)-1-oxidopyridin-4-yl)-4-fluoro-1H-isoindol-1-yl)phenyl)pyrimidine 1-oxide formation at 5 uM after 120 mins by LC-MS analysis; type: ADME, cell-based, Hepatocyte; settings: 2 h
[27] = Drug metabolism in Sprague-Dawley rat hepatocytes assessed as (2S,3S,4S,5R,6S)-6-(5-(3-(3-amino-1-(2-(difluoromethyl)pyridin-4-yl)-4-fluoro-1H-isoindol-1-yl)phenyl)-1H-imidazol-1-yloxy)-3,4,5-trihydroxytetrahydro-2H-pyran-2-carboxylic acid formation at 5 uM after 120 mins by LC-MS analysis; type: ADME, cell-based, Hepatocyte
[28] = Drug metabolism in Sprague-Dawley rat hepatocytes assessed as 5-(3-(3-amino-1-(2-(difluoromethyl)-1-oxidopyridin-4-yl)-4-fluoro-1H-isoindol-1-yl)phenyl)pyrimidine 1-oxide formation at 5 uM after 120 mins by LC-MS analysis; type: ADME, cell-based, Hepatocyte; settings: 2 h
[29] = Drug metabolism in human hepatocytes assessed as 1-(3-(3-amino-1-(2-(difluoromethyl)pyridin-4-yl)-4-fluoro-1H-isoindol-1-yl)phenyl)ethane-1,2-diol formation at 5 uM after 120 mins by LC-MS analysis; type: ADME, cell-based, Hepatocyte; settings: 2 h
[30] = Drug metabolism in Sprague-Dawley rat hepatocytes assessed as (S)-4-(3-amino-4-fluoro-1-(3-(pyrimidin-5-yl)phenyl)-1H-isoindol-1-yl)-2-(difluoromethyl)pyridine 1-oxide formation at 5 uM after 120 mins by LC-MS analysis; type: ADME, cell-based, Hepatocyte; settings: 2 h
[31] = Drug metabolism in Sprague-Dawley rat bile assessed as 5-(3-(3-amino-1-(2-(difluoromethyl)pyridin-4-yl)-4-fluoro-1H-isoindol-1-yl)phenyl)-1H-imidazol-1-ol formation at 58 umol/kg, po after 48 hrs by LC-MS analysis; type: ADME, organism-based; settings: in vivo
[32] = Drug metabolism in Sprague-Dawley rat hepatocytes assessed as (S)-5-(3-(3-amino-1-(2-(difluoromethyl)pyridin-4-yl)-4-fluoro-1H-isoindol-1-yl)phenyl)pyrimidine 1-oxide formation at 5 uM after 120 mins by LC-MS analysis; type: ADME, cell-based, Hepatocyte; settings: 2 h
[33] = Drug excretion in Sprague-Dawley rat feces at 30 umol/kg, iv after 48 hrs by LC-MS analysis; type: ADME, organism-based; settings: faeces, read-out: Drug excretion
[34] = Drug excretion in Sprague-Dawley rat urine at 30 umol/kg, iv after 24 hrs by LC-MS analysis; type: ADME, organism-based; settings: read-out: Drug excretion
[35] = Drug excretion in bile duct-cannulated Sprague-Dawley rat bile at 30 umol/kg, iv after 6 hrs by LC-MS analysis; type: ADME, organism-based; settings: read-out: Drug excretion

Sequence of Cytochrome P450 3A4 (P08684 whole entry): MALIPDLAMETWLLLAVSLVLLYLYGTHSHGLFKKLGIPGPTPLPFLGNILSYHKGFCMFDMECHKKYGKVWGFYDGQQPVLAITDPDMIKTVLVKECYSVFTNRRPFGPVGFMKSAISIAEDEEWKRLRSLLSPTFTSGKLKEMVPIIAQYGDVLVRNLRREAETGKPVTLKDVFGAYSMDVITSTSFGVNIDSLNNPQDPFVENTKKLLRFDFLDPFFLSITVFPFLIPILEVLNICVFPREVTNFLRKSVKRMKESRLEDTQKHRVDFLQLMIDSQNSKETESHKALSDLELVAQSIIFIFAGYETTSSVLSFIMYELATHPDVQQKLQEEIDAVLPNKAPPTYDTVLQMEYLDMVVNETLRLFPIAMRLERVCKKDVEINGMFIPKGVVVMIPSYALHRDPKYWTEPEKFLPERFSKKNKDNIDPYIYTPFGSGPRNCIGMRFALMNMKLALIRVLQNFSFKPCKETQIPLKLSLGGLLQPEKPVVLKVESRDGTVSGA

Structure (SMILES): NC1=N[C@@](c2cccc(-c3cnc[n+]([O-])c3)c2)(c2ccnc(C(F)F)c2)c2cccc(F)c21
- Drug metabolism (Liver): metabolite_detected
- Drug metabolism (Liver microsome [1]): metabolite_detected
- Drug metabolism (Hepatocyte [2]): metabolite_detected
- Drug metabolism (Hepatocyte [3]): metabolite_detected
- Drug metabolism (Hepatocyte [4]): metabolite_detected
- Drug metabolism (Liver microsome [5]): metabolite_detected

Structure (SMILES): NC1=N[C@@](c2cccc(-c3cncnc3)c2)(c2ccnc(C(F)F)c2)c2cccc(F)c21.O=C(O)/C=C/C(=O)O
- Drug metabolism (Liver microsome [6]): metabolite_detected
- Drug metabolism [7]: metabolite_detected
- Drug metabolism (Liver microsome [8]): metabolite_detected
- Drug metabolism (Liver microsome [9]): metabolite_detected
- Drug metabolism (Liver microsome [10]): metabolite_detected
- Drug metabolism [11]: metabolite_detected
- Drug metabolism [12]: metabolite_detected

Structure (SMILES): NC1=NC(c2cc[n+]([O-])cc2)(c2cccc(-c3cnc[n+]([O-])c3)c2)c2cccc(F)c21 (stereo not given)
- Drug metabolism (Plasma): metabolite_detected

Structure (SMILES): NC1=NC(c2cccc(-c3cnc[n+]([O-])c3)c2)(c2cc[n+]([O-])c(C(F)F)c2)c2cccc(F)c21 (stereo not given)
- Drug metabolism (Hepatocyte [2]): metabolite_detected
- Drug metabolism (Hepatocyte [3]): metabolite_detected

Structure (SMILES): NC1=NC(c2cccc(-c3cncn3O)c2)(c2ccnc(C(F)F)c2)c2cccc(F)c21 (stereo not given)
- Drug metabolism [13]: metabolite_detected

Structure (SMILES): NC1=NC(c2cc[n+]([O-])cc2)(c2cccc(-c3cncnc3)c2)c2cccc(F)c21 (stereo not given)
- Drug metabolism (Plasma): metabolite_detected
- Drug metabolism (Liver microsome [14]): metabolite_detected
- Drug metabolism (Cytochrome P450 3A4): metabolite_detected
- Drug metabolism (Liver microsome [15]): metabolite_detected

Structure (SMILES): NC1=N[C@](c2ccnc(C(F)F)c2)([14c]2[14cH][14cH][14cH][14c](-c3cncnc3)[14cH]2)c2cccc(F)c21.O=C(O)/C=C/C(=O)O
- Drug metabolism [16]: metabolite_detected
- Drug metabolism [17]: metabolite_detected
- Drug metabolism [18]: metabolite_detected
- Drug metabolism [19]: metabolite_detected
- Drug metabolism [20]: metabolite_detected
- Drug metabolism [21]: metabolite_detected
- dose excreted [22]: > 90%
- dose excreted [23]: < 1%
- Drug metabolism [24]: metabolite_detected
- Drug metabolism [25]: metabolite_detected
- Drug metabolism [26]: metabolite_detected
- Drug metabolism [27]: metabolite_detected
- Drug metabolism [28]: metabolite_detected
- Drug metabolism [29]: metabolite_detected
- Drug metabolism [30]: metabolite_detected
- Drug metabolism [31]: metabolite_detected
- Drug metabolism [32]: metabolite_detected

Structure (SMILES): NC1=NC(c2cccc(C(O)CO)c2)(c2ccnc(C(F)F)c2)c2cccc(F)c21 (stereo not given)
- Drug metabolism (Hepatocyte [2]): metabolite_detected
- Drug metabolism (Hepatocyte [4]): metabolite_detected

Structure (SMILES): [3H]c1cc(-c2c([3H])nc([3H])nc2[3H])cc([C@@]2(c3cc([3H])nc([3H])c3)N=C(N)c3c(F)cccc32)c1
- dose excreted at 48 h [33]: > 90%
- dose excreted at 24 h [34]: < 10%
- dose excreted at 6 h [35]: 55%

Structure (SMILES): NC1=N[C@@](c2cccc(-c3cncnc3)c2)(c2cc[n+]([O-])c(C(F)F)c2)c2cccc(F)c21
- Drug metabolism (Liver): metabolite_detected
- Drug metabolism (Liver microsome [1]): metabolite_detected
- Drug metabolism (Hepatocyte [2]): metabolite_detected
- Drug metabolism (Hepatocyte [3]): metabolite_detected
- Drug metabolism (Liver microsome [5]): metabolite_detected

Structure (SMILES): NC1=NC(c2cccc(-c3cncn3O[C@@H]3O[C@H](C(=O)O)[C@@H](O)[C@H](O)[C@H]3O)c2)(c2ccnc(C(F)F)c2)c2cccc(F)c21 (stereo not given in full)
- Drug metabolism [13]: metabolite_detected
- Drug metabolism (Hepatocyte [3]): metabolite_detected
